# Measurements published in patent US20240308985A1 (Psy Therapeutics, Inc., priority 2021, published 2024).
# Where two headings read alike, the source gives them in different places.
# Target: Monoacylglycerol Lipase (MAGL) (Homo sapiens (Human), UniProt Q99685)
# Test: MAGL inhibition potency (IC50) assay with 4NPA substrate
# Assay type: biochemical
# Source text: The potency of certain compounds for inhibiting MAGL were obtained using the following assays. The monoacylglycerol lipase inhibitor screening assay kit from Cayman Chemical was used to measure the MAGL potency for the compounds in Table 6 and Table 7. Cayman's Monoacylglycerol Lipase Inhibitor Screening Assay provides a method for screening human MAGL inhibitors. MAGL hydrolyzes 4-nitrophenylacetate resulting in a yellow product, 4-nitrophenol, with an absorbance of 405-412 nm. MAGL Inhibition was measured by the following assay. Monoacylglycerol Lipase (MAGL) inhibition was measured using recombinant MAGL enzyme (aa 2-303 RBC, internal preparation) and the substrate 4-Nitrophenyl acetate (4NPA) (Sigma-Aldrich, N8130). Hydrolysis of the substrate in the presence of the enzyme was measured by absorbance at 405 nm. 10 μL of assay buffer (10 mM Tris pH 7.5, 1 mM EDTA, 0.9% DMSO) was added to a black 384-well non-binding plate with clear bottom (Greiner, 781906) for each reaction. […] DMSO control wells were included for reference. A 10.8 nM (1.8×) MAGL mix in assay buffer was prepared, with 25 μL added to each reaction well, for a final assay concentration of 6 nM. No enzyme wells received 25 μL of buffer. Plate was incubated at room temperature for 30 minutes. 35 mM solution of 4NPA in methanol was prepared daily. A 4.5×4NPA substrate solution was prepared in assay buffer and 10 μL was added to each reaction well, for a final assay concentration of 0.25 mM. Plate was spun for 1 minute at 1000 rpm before measuring absorbance using a CLARIOstar plate reader (BMG Labtech). A kinetic reading at 405 nm was done every minute for 30 minutes. Data was analyzed using the linear slope of the reaction progress curve and the average of the no-enzyme wells (background) was subtracted from the data. The background-subtracted slope data was converted to % activity using the average of wells with enzyme and DMSO vehicle. IC50s were calculated using GraphPad software (Sigmoidal dose response, variable slope equation). […] Table 8 provides potency measurements of MAGL inhibition measured using the Potency Assay of Example 22 above, with the following modifications described in Table C. [table]
# [1] = Method 14: Reaction Biology MAGL enzyme, 6 nM, read-out: MAGL Potency (Detection Method)
# [2] = Method 6: Reaction Biology MAGL enzyme, 6 nM, read-out: MAGL Potency (Detection Method)
# [3] = Method 2: Cayman Chemical MAGL enzyme, 10 nM, read-out: Potency (MAGL inhibition)
# [4] = Method 12: Reaction Biology MAGL enzyme, 15 nM, read-out: MAGL Potency (Detection Method)
# [5] = Method 11: Reaction Biology MAGL enzyme, 25 nM (name: Conc 20), read-out: MAGL Potency (Detection Method)
# [6] = Method 2: Cayman Chemical MAGL enzyme, 10 nM, read-out: MAGL Potency (Detection Method)
# [7] = Method 14: Reaction Biology MAGL enzyme, 6 nM, read-out: Potency (MAGL inhibition)
# Monoacylglycerol Lipase (MAGL), sequence (Q99685 2-303): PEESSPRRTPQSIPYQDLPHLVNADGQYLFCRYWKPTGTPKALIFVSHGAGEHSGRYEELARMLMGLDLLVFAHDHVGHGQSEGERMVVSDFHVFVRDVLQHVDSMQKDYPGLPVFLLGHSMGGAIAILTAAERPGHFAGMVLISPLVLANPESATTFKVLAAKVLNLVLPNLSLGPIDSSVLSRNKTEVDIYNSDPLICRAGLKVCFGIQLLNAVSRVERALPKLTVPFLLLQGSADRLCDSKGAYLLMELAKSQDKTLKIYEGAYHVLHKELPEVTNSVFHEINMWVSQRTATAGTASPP
compound,measurement,setting,value
"O=C(c1cc(O)ccc1F)N1CC2(CC(c3nnc(-c4ccccc4Cl)o3)C2)C1 [Compound 377, {6-[5-(o-chlorophenyl)-1,3,4-oxadiazol-2-yl]-2-aza-2-spiro[3.3]heptyl}(2-fluoro-5-hydroxyphenyl)methanone]",IC50,[1],500 to 1000 nM
Cc1cc(C2CC3(C2)CN(C(=O)c2c(F)ccc(O)c2C)C3)n(-c2ccccc2C)n1 [Compound 370],IC50,[1],500 to 1000 nM
"Cc1cc(-c2cc(F)ccc2C)n(C2CC3(C2)CN(C(=O)c2ccc(F)cc2OC2CC2)C3)n1 [Compound 423, (2-cyclopropoxy-4-fluorophenyl){6-[5-(5-fluoro-2-tolyl)-3-methyl-1-pyrazolyl]-2-aza-2-spiro[3.3]heptyl}methanone]",IC50,[2],1000 to 5100 nM
CCOc1cc(F)ccc1C(=O)N1CC2(CC(C(=O)Nc3ccccc3C)C2)C1 [Compound 188],IC50,[3],> 10000 nM
"Cc1ccc(F)c(-c2nn(C3CC4(C3)CN(C(=O)c3cc(O)ccc3F)C4)cc2C(F)(F)F)c1 [Compound 475, (2-fluoro-5-hydroxyphenyl){6-[3-(2-fluoro-5-tolyl)-4-(trifluoromethyl)-1-pyrazolyl]-2-aza-2-spiro[3.3]heptyl}methanone]",IC50,[4],< 50 nM
"Cc1ccc(F)cc1-c1cc(C)n(C2CC3(C2)CN(C(=O)c2ccc(F)cc2OCF)C3)n1 [Compound 437, (4-fluoro-2-fluoromethoxyphenyl){6-[3-(5-fluoro-2-tolyl)-5-methyl-1-pyrazolyl]-2-aza-2-spiro[3.3]heptyl}methanone]",IC50,[5],1000 to 5100 nM
"O=C(c1ccc(F)cc1OC1CC1)N1CC2(CC(n3ncc(C(F)(F)F)c3-c3ccccc3F)C2)C1 [Compound 523, (2-cyclopropoxy-4-fluorophenyl) {6-[5-(o-fluorophenyl)-4-(trifluoromethyl)~1-pyrazolyl]-2-aza-2-spiro[3.3]heptyl}methanone]",IC50,[4],1000 to 5100 nM
"Cc1cnn(C2CC3(C2)CN(C(=O)c2cc(O)ccc2F)C3)c1-c1ccccc1C(F)(F)F (atropisomer, axis not shown; (M)) [Compound 410, 4-fluoro-3-{6-[(4M)-4-methyl-5-[2-(trifluoromethyl)phenyl]-1H-pyrazol-1-yl]-2-azaspiro[3.3]heptane-2-carbonyl}phenol]",IC50,[2],50 to 150 nM
Cc1cc(C2CC3(C2)CN([C@@H]2COc4ccccc42)C3)n(-c2ccccc2C)n1 [Compound 155],IC50,[3],> 10000 nM
"O=C(c1ccc(F)cc1OC1CC1)N1CC2(CC(n3cc(C(F)(F)F)c(-c4ccccc4F)n3)C2)C1 [Compound 524, (2-cyclopropoxy-4-fluorophenyl){6-[3-(o-fluorophenyl)-4-(trifluoromethyl)-1-pyrazolyl]-2-aza-2-spiro[3.3]heptyl}methanone]",IC50,[4],150 to 500 nM
"Cc1cn(C2CC3(C2)CN(C(=O)c2ccc(F)cc2OC2CC2)C3)nc1-c1ccccc1C(F)(F)F [Compound 448, (2-cyclopropoxy-4-fluorophenyl)(6-{4-methyl-3-[o-(trifluoromethyl)phenyl]-1-pyrazolyl}-2-aza-2-spiro[3.3]heptyl)methanone]",IC50,[2],50 to 150 nM
"CCOc1ccccc1C(=O)N1CC2(CC(c3cc(C)nn3-c3ccccc3C)C2)C1 [Compound 145, (2-ethoxyphenyl)(6-(3-methyl-1-(o-tolyl)-1H-pyrazol-5-yl)-2-azaspiro[3.3]heptan-2-yl)methanone]",IC50,[6],1000 to 5100 nM
"Cc1ccc(F)cc1-c1cc(C)n(C2CC3(C2)CN(C(=O)c2cc(O)ccc2F)C3)n1 [Compound 446, (2-fluoro-5-hydroxyphenyl){6-[3-(5-fluoro-2-tolyl)-5-methyl-1-pyrazolyl]-2-aza-2-spiro[3.3]heptyl}methanone]",IC50,[2],< 50 nM
"O=C(c1cc(O)ccc1F)N1CC2(CC(n3nc(C(F)(F)F)cc3-c3ccccc3C(F)(F)F)C2)C1 [Compound 487, (2-fluoro-5-hydroxyphenyl)(6-{3-(trifluoromethyl)-5-[o-(trifluoromethyl)phenyl]-1-pyrazolyl}-2-aza-2-spiro[3.3]heptyl)methanone]",IC50,"Method 13: Reaction Biology MAGL enzyme, 12 nM, read-out: MAGL Potency (Detection Method)",150 to 500 nM
"COc1cc(F)ccc1C(=O)N1CC2(CC(c3cc(C)nn3-c3ccccc3C)C2)C1 [Compound 142, (4-fluoro-2-methoxyphenyl)(6-(3-methyl-1-(o-tolyl)-1H-pyrazol-5-yl)-2-azaspiro[3.3]heptan-2-yl)methanone]",IC50,[6],500 to 1000 nM
CCOc1cc(F)ccc1C(=O)N1CC2(CC(n3nc(C)cc3-c3ccccc3C)C2)C1 [Compound 460],IC50,[5],1000 to 5100 nM
Cc1cc(C2CC3(C2)CN(C(=O)c2ccc4c(c2)OCC4)C3)n(-c2ccccc2C)n1 [Compound 402],IC50,[7],> 10000 nM
"Cc1ccc(F)cc1-c1nn(C2CC3(C2)CN(C(=O)c2ccc(F)cc2OC2CC2)C3)cc1C [Compound 449, (2-cyclopropoxy-4-fluorophenyl){6-[3-(5-fluoro-2-tolyl)-4-methyl-1-pyrazolyl]-2-aza-2-spiro[3.3]beptyl}methanone]",IC50,[2],150 to 500 nM
"CCOc1cc(F)ccc1C(=O)N1CC2(CC(C(=O)N(C)c3ccccc3C)C2)C1 [Compound 187, 2-(2-Ethoxy-4-fluorobenzoyl)-N-Methyl-N-(o-tolyl)-2-azaspiro [3.3] heptane-6-carboxamide]",IC50,[6],150 to 500 nM
same,IC50,"Methods 2, 3, read-out: MAGL Potency (Detection Method)",1000 to 5100 nM
"Cc1ccccc1NC(=O)C1CC2(C1)CN(C(=O)c1cc(O)ccc1F)C2 [Compound 186, N-o-tolyl-2-(2-fluoro-5-hydroxybenzoyl)-2-aza-6-spiro[3.3]heptanecarboxamide]",IC50,[6],1000 to 5100 nM
"Cc1cc(C2CC3(C2)CN(C(=O)c2cc(O)ccc2F)C3)n(-c2ccccc2C(F)(F)F)n1 [Compound 366, (2-fluoro-5-hydroxyphenyl)(6-{3-methyl-1-[o-(trifluoromethyl)phenyl]-5-pyrazolyl}-2-aza-2-spiro[3.3]heptyl)methanone]",IC50,[1],< 50 nM
"CCOc1cc(F)ccc1C(=O)N1CC2(CC(c3cc(C)nn3-c3ccccc3C)C2)C1 [Compound 146, (2-ethoxy-4-fluorophenyl){6-[3-methyl-1-(o-tolyl)-5-pyrazolyl]-2-aza-2-spiro[3.3]heptyl}methanone]",IC50,[6],150 to 500 nM
same,IC50,"Method 3: Reaction Biology MAGL enzyme, 10 nM, read-out: MAGL Potency (Detection Method)",< 50 nM
"O=C(c1cc(O)ccc1F)N1CC2(CC(n3ncc(C4CC4)c3-c3ccccc3Cl)C2)C1 [Compound 411, {6-[5-(o-chlorophenyl)-4-cyclopropyl-1-pyrazolyl]-2-aza-2-spiro[3.3]heptyl}(2-fluoro-5-hydroxyphenyl)methanone]",IC50,[2],150 to 500 nM
O=C(NCC1COC1)C1CC2(C1)CN(C(=O)c1cc(O)ccc1F)C2 [Compound 395],IC50,[7],> 10000 nM
"CCOc1cc(F)ccc1C(=O)N1CC2(CC(n3nc(-c4ccccc4C)cc3C)C2)C1 [Compound 461, (2-ethoxy-4-fluorophenyl){6-[5-methyl-3-(o-tolyl)-1-pyrazolyl]-2-aza-2-spiro[3.3]heptyl}methanone]",IC50,[5],500 to 1000 nM
"Cc1cc(C2CC3(C2)CN(C(=O)c2cc(O)ccc2Cl)C3)n(-c2ccccc2C)n1 [Compound 140, (2-chloro-5-hydroxyphenyl) (6-(3-methyl-1-(o-tolyl)-1H-pyrazol-5-yl)-2-azaspiro [3.3]heptan-2-yl) methanone]",IC50,[6],50 to 150 nM
"Cc1cc(-c2ccccc2C)n(C2CC3(C2)CN(C(=O)c2ccc(F)cc2OCC(F)(F)F)C3)n1 [Compound 464, [4-fluoro-2-(2,2,2-trifluoroethoxy)phenyl]{6-[3-methyl-5-(o-tolyl)-1-pyrazolyl]-2-aza-2-spiro[3.3]heptyl}methanone]",IC50,[5],500 to 1000 nM
"COc1cc(F)ccc1C(=O)N1CC2(CC(n3nc(-c4cc(F)ccc4C)cc3C(F)(F)F)C2)C1 [Compound 458, (4-fluoro-2-methoxyphenyl){6-[3-(5-fluoro-2-tolyl)-5-(trifluoromethyl)-1-pyrazolyl]-2-aza-2-spiro[3.3]heptyl}methanone]",IC50,[5],1000 to 5100 nM
"Cc1ccccc1-c1c(C)cnn1C1CC2(C1)CN(C(=O)c1ccc(F)cc1OC1CC1)C2 [Compound 419, (2-cyclopropoxy-4-fluorophenyl){6-[4-methyl-5-(o-tolyl)-1-pyrazolyl]-2-aza-2-spiro[3.3]heptyl}methanone]",IC50,[2],1000 to 5100 nM
"Cc1cc(C2=CC3(C2)CN(C(=O)c2cc(O)ccc2F)C3)n(-c2ccccc2C)n1 [Compound 120, (2-fluoro-5-hydroxyphenyl)(6-(3-methyl-1-(o-tolyl)-1H-pyrazol-5-yl)-2-azaspiro[3.3]hept-5-en-2-yl)methanone]",IC50,[6],150 to 500 nM
Cc1cc(C2CC3(C2)CN([C@H]2COc4ccccc42)C3)n(-c2ccccc2C)n1 [Compound 154],IC50,[3],> 10000 nM
